{
  "source": "patent US12618847B2",
  "about": "(Purdue Research Foundation, priority 2020, dated 2026)",
  "key": {"[1]": {"target": "20S CP (Homo sapiens, UniProt P20618+P28074)", "assay": "Fluorescence hydrolysis of probes by purified 20S CP (plate reader)", "format": "biochemical", "conditions": "30 μM probe", "protocol": "The peptide recognition sequence used was based on the commercially available 4-mer AMC probe (FIG. 1A), specifically Leu-Leu-Val-Tyr (SEQ ID NO: 1), to generate TAS1 (FIG. 1B). To determine if TAS1 had any enhanced sensitivity, the two probes were compared under the same conditions with purified 20S CP. Briefly, the probes were incubated in triplicate at 10 and 30 μM with 9 nM […] at 37° C. The change in fluorescence was monitored for two hours and the endpoint values were averaged and graphed for comparison (FIG. 1C). Because the two fluorophores have different excitation and emission wavelengths, the two experiments were performed separately but using the same conditions for the plate reader (i.e. gain, number of flashes, settling time, etc.). […] Since, unlike Suc-LLVY-AMC (SEQ ID NO: 1), TAS1 has the potential to have more than one cleavage site which could result in an increase in fluorescence (on either side of Rh110), we confirmed that the increase in signal is only from the recognition and cleavage of the peptide at the Tyr moiety by analyzing the 30 μM TAS1 samples by LC/MS (FIG. 2).\nWith these new peptide sequences in hand, we returned to incorporating the Rh110-peptoid moiety and to compare the cleavage of TAS1-3 with the 20S CP. We incubated all three probes at various concentrations with 9 nM 20S CP and monitored the change in fluorescence using a microplate reader. […] In order to compare the three probes, we fit a linear regression for the points from 10-60 min for 30 μM of each probe to obtain a rate for the change in fluorescence (Table 1). Of the three, TAS1 was hydrolyzed the quickest, although the slope for TAS2 was similar. […] To confirm that the change in fluorescence was due to amide bond cleavage at the expected site on the peptide, we analyzed the samples at a concentration of 30 μM by LC/MS (FIG. 3)."}, "[2]": {"test_system": "A549 cells", "assay": "Probe cleavage in live A549 cells with or without MG-132 pretreatment", "format": "cell-based", "conditions": "10 μM probe, 5,000 cells/well, 90 min", "protocol": "We next sought to determine if the TAS probes would be suitable for cell-based assays. To accomplish this, A549 cells were plated at a density of 5,000 cells/well in a black 96 well plate with a black bottom. After allowing the cells to adhere to the plate, the samples were washed with PBS three times then dosed with 10 μM of each probe in modified KRBH buffer. The change in fluorescence was recorded on a microplate reader for 90 min. After allowing the signal to equilibrate for […], each sample was set to zero and the future time points were scaled accordingly. As was done with the biochemical data, a linear regression was fit to each set of data. From the slope, it is observed that the rate for TAS2 was the highest. To determine the in-cell selectivity, a set of samples pretreated with MG-132 (10 μM), a proteasome inhibitor, was included for each probe. These samples were pre-incubated with MG-132 in cell culture media for one hour before washing with PBS and dosing with each probe in modified KRBH buffer. […] To ensure this decrease was not a consequence of cell death, cells were treated in the same way and analyzed using Cell-Titer Glo."}, "[3]": {"test_system": "A498", "assay": "TAS2 rate of hydrolysis in live cells", "format": "cell-based", "conditions": "A498, TAS2 10 μM, 5,000 cells/well", "protocol": "(§1) To compare these cells lines, each was plated at the same density of 5,000 cells/well in a black 96 well plate—for adherent cells lines A498, SK-MEL-2, MEL-92.1, SH-SY5Y and HEK293T, the cells were allowed to adhere overnight before using in the assay; MM.1R cells were plated and used directly after. Samples were incubated with either DMSO or TAS2 (10 μM) for 15 min, washed with PBS three times before putting the plate in a microplate reader to record the fluorescence intensity over 90 min. The experiment was performed in technical triplicate and experimental duplicate for each cell line and the rate of hydrolysis of TAS-2 was determined, Table 2."}, "[4]": {"test_system": "HEK-293T", "assay": "TAS2 rate of hydrolysis in live cells", "format": "cell-based", "conditions": "TAS2 10 μM, 5,000 cells/well", "protocol": "as §1"}, "[5]": {"test_system": "MEL-92.1", "assay": "TAS2 rate of hydrolysis in live cells", "format": "cell-based", "conditions": "MEL-92.1, TAS2 10 μM, 5,000 cells/well", "protocol": "as §1"}, "[6]": {"test_system": "MM.1R", "assay": "TAS2 rate of hydrolysis in live cells", "format": "cell-based", "conditions": "TAS2 10 μM, 5,000 cells/well", "protocol": "as §1"}, "[7]": {"test_system": "SH-SY5Y", "assay": "TAS2 rate of hydrolysis in live cells", "format": "cell-based", "conditions": "TAS2 10 μM, 5,000 cells/well", "protocol": "as §1"}, "[8]": {"test_system": "SK-MEL-2", "assay": "TAS2 rate of hydrolysis in live cells", "format": "cell-based", "conditions": "SK-MEL-2, TAS2 10 μM, 5,000 cells/well", "protocol": "as §1"}},
  "note": "Where no end group is shown, it is not given here. [ ]: non-standard residue; d: D form. Phe(4-Cl) = N[C@@H](Cc1ccc(Cl)cc1)C(=O)O",
  "data": [
    {"substance": "TAS2: Rh110-based peptide/peptoid hybrid probe with Phe(4-Cl) as Tyr substitute (LLV[Phe(4-Cl)]; also: Rh110-based probe, place not given here, peptide/peptoid hybrid)", "values": [
      {"measurement": "Rate of Hydrolysis", "setting": "[1]; 9 nM purified 20S CP, linear regression 10-60 min", "value": "63.8 ΔRFU/min"},
      {"measurement": "Cleavage products after incubation with 20S CP (LC/MS)", "setting": "[1]; LC/MS", "value": "only produced the expected cleavage products"},
      {"measurement": "Rate of probe cleavage in A549 cells (slope)", "setting": "[2]", "value": "highest"},
      {"measurement": "Rate of Hydrolysis", "setting": "[3]", "value": "39.6 ± 4.8 ΔRFU/min"},
      {"measurement": "Rate of Hydrolysis", "setting": "[4]", "value": "6.7 ± 3.2 ΔRFU/min"},
      {"measurement": "Rate of Hydrolysis", "setting": "[5]", "value": "16.4 ± 2.6 ΔRFU/min"},
      {"measurement": "Rate of Hydrolysis", "setting": "[6]", "value": "81.6 ± 25.5 ΔRFU/min"},
      {"measurement": "Rate of Hydrolysis", "setting": "[7]", "value": "5.8 ± 0.4 ΔRFU/min"},
      {"measurement": "Rate of Hydrolysis", "setting": "[8]", "value": "12.1 ± 1.3 ΔRFU/min"}
    ]}
  ]
}
